# Measured values published in the NIST ThermoML archive (doi:10.1016/j.jct.2008.07.010).
# “And” between values parts separate entries of the source, which are not always exact repeats. Equal values may be shown once. Numbers after ± are expanded uncertainties.
# Experiments:
# [1] = 101 kPa, Liquid; for viscosity: Capillary tube (Ostwald / Ubbelohde) method; for speed of sound: Sing-around technique in a fixed-path interferometer; for mass density: Vibrating tube method
# [2] = xn = mol fraction of the nth substance listed; conditions: 101 kPa, Liquid, x1 = 1; for viscosity: Capillary tube (Ostwald / Ubbelohde) method; for speed of sound: Sing-around technique in a fixed-path interferometer; for mass density: Vibrating tube method
viscosity ([1]; 298.15 K) [mPa·s],speed of sound ([1]; 298.15 K),mass density ([1]; 298.15 K) [kg/m3],viscosity ([1]; 303.15 K) [mPa·s],speed of sound ([1]; 303.15 K) [m/s],mass density ([1]; 303.15 K) [kg/m3],viscosity ([1]; 308.15 K) [mPa·s],speed of sound ([1]; 308.15 K) [m/s],mass density ([1]; 308.15 K) [kg/m3],Structure (SMILES),viscosity ([2]; 298.15 K) [mPa·s],speed of sound ([2]; 298.15 K) [m/s],mass density ([2]; 298.15 K) [kg/m3],viscosity ([2]; 303.15 K) [mPa·s],speed of sound ([2]; 303.15 K) [m/s],mass density ([2]; 303.15 K) [kg/m3],viscosity ([2]; 308.15 K) [mPa·s],speed of sound ([2]; 308.15 K) [m/s],mass density ([2]; 308.15 K) [kg/m3]
28.26 ± 0.31,1381.9 ± 1.3 m/s,805.122 ± 0.24,22.09 ± 0.26,1364.1 ± 1.3,801.912 ± 0.24,17.77 ± 0.21,1346.5 ± 1.3,798.709 ± 0.24,"CC(C)CCCC(C)CCCC(C)CCCCC(C)CCCC(C)CCCC(C)C (stereo not given) [2,6,10,15,19,23-hexamethyltetracosane]",,,,,,,,,
3.041 ± 0.026,1338.6 ± 1.3 m/s,770.456 ± 0.24,2.706 ± 0.024,1320 ± 1.3,766.981 ± 0.24,2.409 ± 0.022,1301.7 ± 1.3,763.52 ± 0.24,CCCCCCCCCCCCCCCC [hexadecane],,,,,,,,,
,,,,,,,,,CC(C)O [propan-2-ol] + CC(C)CCCC(C)CCCC(C)CCCCC(C)CCCC(C)CCCC(C)C,2.061 ± 0.018,1139.3 ± 0.9,781.152 ± 0.15,1.758 ± 0.015,1122 ± 0.8,776.87 ± 0.15,1.573 ± 0.013,1104.5 ± 0.8,772.511 ± 0.15
,,,,,,,,,CC(C)O [propan-2-ol] + CCCCCCCCCCCCCCCC,2.061 ± 0.018,1139.3 ± 0.85,781.152 ± 0.15,1.758 ± 0.015,1122 ± 0.8,776.87 ± 0.15,1.573 ± 0.013,1104.5 ± 0.8,772.511 ± 0.15

Structure (SMILES),viscosity ([1]; 298.15 K) [mPa·s],speed of sound ([1]; 298.15 K),mass density ([1]; 298.15 K) [kg/m3],viscosity ([1]; 303.15 K) [mPa·s],speed of sound ([1]; 303.15 K) [m/s],mass density ([1]; 303.15 K) [kg/m3],viscosity ([1]; 308.15 K) [mPa·s],speed of sound ([1]; 308.15 K) [m/s],mass density ([1]; 308.15 K) [kg/m3],viscosity ([2]; 298.15 K) [mPa·s],speed of sound ([2]; 298.15 K) [m/s],mass density ([2]; 298.15 K) [kg/m3],viscosity ([2]; 303.15 K) [mPa·s],speed of sound ([2]; 303.15 K) [m/s],mass density ([2]; 303.15 K) [kg/m3],viscosity ([2]; 308.15 K) [mPa·s],speed of sound ([2]; 308.15 K) [m/s],mass density ([2]; 308.15 K) [kg/m3]
CC(C)O [propan-2-ol],2.061 ± 0.018,1139.3 ± 0.85 m/s and 1139.3 ± 0.9 m/s,781.152 ± 0.15,1.758 ± 0.015,1122 ± 0.8,776.87 ± 0.15,1.573 ± 0.013,1104.5 ± 0.8,772.511 ± 0.15,,,,,,,,,
